Measurements from patent publication US10029994B2, “Isoxazole hydroxamic acid compounds as LpxC inhibitors” (priority 2014, dated 2018).
Like-named read-outs stand apart in the source and are kept apart here.

Columns and labels:
E. C. ATCC 29522 = experiment: MIC in the presence of sub-inhibitory rifampicin (potentiation/synergy); format: cell-based, Escherichia coli; details: +2 μg/ml rifampicin (RIF); broth microdilution, 35° C., 20 hours
Protocol: (§1) Bacterial isolates were cultivated from −70° C. frozen stocks by two consecutive overnight passages at 35° C. in ambient air on 5% blood agar (Remel, Lenexa, Kans.). Quality control strain, P. aeruginosa ATCC 27853, A. baumannii ATCC19606 and E. coli ATCC 25922 are from the American Type Culture Collection (ATCC; Rockville, Md.) and PAO1 was received from Dr. K. Poole.
(§2) Minimal Inhibitory Concentrations (MICs) were determined by the broth microdilution method in accordance with Clinical and Laboratories Institute (CLSI) guidelines (CLSI M100-S25, Performance Standards for Antimicrobial Susceptibility Testing; Twenty-fifth Informational Supplement). In brief, fresh bacterial overnight cultures were resuspended in sterile saline, adjusted to a 0.5 McFarland turbidity standard and then diluted 2000-fold in cation adjusted Mueller-Hinton Broth II (MHB; Remel BBL) to yield a final inoculum of approximately 5×10^5 colony-forming units (CFU)/mL. Two-fold serial dilutions of compounds were prepared in 100% dimethyl sulfoxide (DMSO) at 100-fold the highest final assay concentration; the resulting dilution series of compounds were diluted 1:10 with sterile water. Ten μl of the drug dilution series in 10% DMSO was transferred to microtiter wells and 90 μl of bacterial suspension was inoculated into the wells. For testing the ability of compounds to potentiate the activity of known antibiotics, the assay was modified as follows; known antibiotics were added to the bacterial inoculum at 1.1-fold the final assay concentration indicated in Table A. All inoculated microdilution trays were incubated in ambient air at 35° C. for 20 hours. Following incubation, assay plates were read in a microtiter plate reader at 600 nm and visually inspected to confirm the MIC endpoint well with the OD value. The lowest concentration of the compound that prevented visible growth was recorded as the MIC. Performance of the assay was monitored by testing ciprofloxacin against the laboratory quality control strain in accordance with guidelines of the CLSI.

A. B. ATCC 19606 [1] = experiment: as above; format: cell-based, Acinetobacter baumannii; details: +2 μg/ml rifampicin (RIF); broth microdilution, 35° C., 20 hours
Protocol: as §1, §2

P. aeruginosa LpxC = target: T1, P. aeruginosa LpxC (Pseudomonas aeruginosa, UniProt P47205); experiment: P. aeruginosa LpxC Inhibition Assay (LC-MS/MS); format: biochemical; details: 1 nM P. aeruginosa LpxC, 30 min pre-incubation, 2 μM UDP-3-O-(R-3-hydroxydecanoyl)-GlcNAc, pH 7.5
T1 construct: made in house
T1 sequence (P47205 1-303): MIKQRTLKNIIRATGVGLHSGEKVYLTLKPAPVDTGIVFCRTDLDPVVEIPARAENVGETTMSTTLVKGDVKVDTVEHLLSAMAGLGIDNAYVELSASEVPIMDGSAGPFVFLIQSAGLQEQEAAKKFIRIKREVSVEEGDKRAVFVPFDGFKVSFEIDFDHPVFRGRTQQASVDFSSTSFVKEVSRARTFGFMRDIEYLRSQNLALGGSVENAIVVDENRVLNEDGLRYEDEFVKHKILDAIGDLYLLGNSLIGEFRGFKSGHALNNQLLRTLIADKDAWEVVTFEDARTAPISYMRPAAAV
From the text: P. aeruginosa LpxC Inhibition Assay
The P. aeruginosa LpxC protein is produced according to the general method of Hyland et al (Journal of Bacteriology 1997 179, 2029-2037: Cloning, expression and purification of UDP-3-O-acyl-GlcNAc deacetylase from Pseudomonas aeruginosa: a metalloamidase of the lipid A biosynthesis pathway). The LC-MS/MS method for quantitation of LpxC product was developed using an Agilent 1200 Capillary HPLC system coupled to an Applied Biosystems MDS Sciex 4000QTRAP mass spectrometer. Both instruments are controlled using the Applied Biosystems MDS Sciex Analyst software. LpxC reaction product (UDP-3-O—(R-3-hydroxyacyl)-glucosamine) was produced by hydrolysis of LpxC substrate catalyzed by P.a. LpxC and purified using reversed phase chromatography on a Phenomenex Luna C18(2) 4.6×50 mm column. An LpxC product calibration curve was generated to evaluate the sensitivity and dynamic range of the LC-MS/MS method. Briefly, compounds are pre-incubated with 1 nM P. aeruginosa LpxC for 30 min. at room temperature. Reactions are initiated by the addition of 2 μM UDP-3-O—(R-3-hydroxydecanoyl)-GlcNAc. Reactions are conducted in a 384-well plate with a total volume of 50 μL in each well containing 50 mM Sodium phosphate pH 7.5, 0.005% Trition X-100 for 20 min at room temperature. After quenching with 1.8% HOAc (5 μL of a 20% HOAc added to each well), reaction mixtures are analyzed using the LC-MS/MS method and peak areas are transformed into product concentration using a LpxC product calibration curve. Total activity (0% inhibition control) is obtained from reactions with no inhibitors and 100% inhibition control is the background using quenched samples before reaction starts. For IC50 determinations, peak areas are converted to percent inhibition in Microsoft Excel. Percent inhibition values are plotted vs. log compound concentration using XLfit. Data is fit to the four-parameter logistic equation using the non-linear regression algorithm in XLfit to return the IC50 and hill slope values.

P. A. PAO1 NB52019 = experiment: MIC, broth microdilution (CLSI); format: cell-based, Pseudomonas aeruginosa; details: Pseudomonas aeruginosa, read-out: P. A. PAO1 NB52019 MIC
Protocol: as §1, §2

A. B. ATCC 19606 [2] = experiment: MIC, broth microdilution (CLSI); format: cell-based, Acinetobacter baumannii; details: Acinetobacter baumannii, read-out: A. B. ATCC 19606 MIC
Protocol: as §1, §2

E. C. ATCC 25922 = experiment: MIC, broth microdilution (CLSI); format: cell-based, Escherichia coli; details: Escherichia coli, ATCC25922, 20 h, read-out: E. C. ATCC 25922 MIC
Protocol: as §1, §2

[3] = PAO1, broth microdilution, 35° C., 20 hours
[4] = ATCC19606, broth microdilution, 35° C., 20 hours
[5] = broth microdilution, 35° C., 20 hours

| E. C. ATCC 29522 (+2 μg/ml RIF) MIC (E. C. ATCC 29522) | A. B. ATCC 19606 (+2 μg/ml RIF) MIC (A. B. ATCC 19606 [1]) | IC50 (P. aeruginosa LpxC) | MIC (P. A. PAO1 NB52019; [3]) | MIC (A. B. ATCC 19606 [2]; [4]) | MIC (E. C. ATCC 25922; [5]) | Structure (SMILES) | MIC (P. A. PAO1 NB52019; PAO1, 20 h) | MIC (A. B. ATCC 19606 [2]; ATCC19606, 20 h) | MIC (E. C. ATCC 25922) |
| --- | --- | --- | --- | --- | --- | --- | --- | --- | --- |
| 0.125 mg/L | 6 mg/L | < 1 nM | 0.25 mg/L | > 64 mg/L | 1 mg/L | C[C@@](CCc1cc(C#Cc2ccc([C@H](O)CO)cc2)on1)(C(=O)NO)S(C)(=O)=O [Compound 2.7, (R)-4-(5-((4-((S)-1,2-dihydroxyethyl)phenyl)ethynyl)isoxazol-3-yl)-N-hydroxy-2-methyl-2-(methylsulfonyl)butanamide] |  |  |  |
| ≤0.06 mg/L | ≤0.06 mg/L | < 1 nM | 0.5 mg/L | 64 mg/L | 0.5 mg/L | CC(CCc1cc(C#Cc2ccccc2)on1)(C(=O)NO)S(C)(=O)=O (stereo not drawn) [Compound 2.4, N-hydroxy-2-methyl-2-(methylsulfonyl)-4-(5-(phenylethynyl)isoxazol-3-yl)butanamide] |  |  |  |
| 0.125 mg/L | 0.5 mg/L | < 1 nM | 1 mg/L | > 64 mg/L | 0.25 mg/L | C[C@@H](O)Cc1ccc(C#Cc2cc(CCC(C)(C(=O)NO)S(C)(=O)=O)no2)cc1 (stereo partly drawn) [Compound 2.5, N-hydroxy-4-(5-((4-((R)-2-hydroxypropyl)phenyl)ethynyl)isoxazol-3-yl)-2-methyl-2-(methylsulfonyl)butanamide] |  |  |  |
| ≤0.06 mg/L | 2 mg/L | 2 nM | 0.25 mg/L | > 64 mg/L | 4 mg/L | CC#Cc1cc(CC[C@](C)(C(=O)NO)S(C)(=O)=O)no1 [Compound 1.4, (R)—N-hydroxy-2-methyl-2-(methylsulfonyl)-4-(5-(prop-1-yn-1-yl)isoxazol-3-yl)butanamide] |  |  |  |
| ≤0.06 mg/L | 0.5 mg/L | < 1 nM | 0.25 mg/L | > 64 mg/L | 0.25 mg/L | CC(CCc1cc(C#Cc2ccc(CCO)cc2)on1)(C(=O)NO)S(C)(=O)=O (stereo not drawn) [Compound 2.2, N-hydroxy-4-(5-((4-(2-hydroxyethyl)phenyl)ethynyl)isoxazol-3-yl)-2-methyl-2-(methylsulfonyl)butanamide] |  |  |  |
| 0.125 mg/L | 4 mg/L | < 1 nM | 0.5 mg/L | > 64 mg/L | 1 mg/L | COC(CO)c1ccc(C#Cc2cc(CCC(C)(C(=O)NO)S(C)(=O)=O)no2)cc1 (stereo not drawn) [Compound 2.3, N-hydroxy-4-(5-((4-(2-hydroxy-1-methoxyethyl)phenyl)ethynyl)isoxazol-3-yl)-2-methyl-2-(methylsulfonyl)butanamide] |  |  |  |

Continued, compound first:

| Structure (SMILES) | E. C. ATCC 29522 (+2 μg/ml RIF) MIC (E. C. ATCC 29522) | A. B. ATCC 19606 (+2 μg/ml RIF) MIC (A. B. ATCC 19606 [1]) | IC50 (P. aeruginosa LpxC) | MIC (P. A. PAO1 NB52019; [3]) | MIC (A. B. ATCC 19606 [2]; [4]) | MIC (E. C. ATCC 25922; [5]) | MIC (P. A. PAO1 NB52019; PAO1, 20 h) | MIC (A. B. ATCC 19606 [2]; ATCC19606, 20 h) | MIC (E. C. ATCC 25922) |
| --- | --- | --- | --- | --- | --- | --- | --- | --- | --- |
| C[C@@](CCc1cc(/C=C(\F)C2CC2)on1)(C(=O)NO)S(C)(=O)=O [Compound 4.7, (R,Z)-4-(5-(2-cyclopropyl-2-fluorovinyl)isoxazol-3-yl)-N-hydroxy-2-methyl-2-(methylsulfonyl)butanamide] | 0.5 mg/L | 0.5 mg/L | < 1 nM | 0.5 mg/L | > 64 mg/L | 8 mg/L |  |  |  |
| Cc1cc([C@H](O)[C@](C)(NCc2cc(C#CC3CC3)on2)C(=O)NO)no1 [Compound 3.1, (2S,3R)-2-(((5-(cyclopropylethynyl)isoxazol-3-yl)methyl)amino)-N,3-dihydroxy-2-methyl-3-(5-methylisoxazol-3-yl)propanamide] | ≤0.06 mg/L | ≤0.06 mg/L | < 1 nM |  |  |  | 0.5 mg/L | > 64 mg/L | 1 mg/L |
| C[C@@](CCc1cc(C#CC2CC(F)(F)C2)on1)(C(=O)NO)S(C)(=O)=O [Compound 1.12, (R)-4-(5-((3,3-difluorocyclobutyl)ethynyl)isoxazol-3-yl)-N-hydroxy-2-methyl-2-(methylsulfonyl)butanamide] | 0.25 mg/L | ≤0.06 mg/L | < 1 nM | 0.5 mg/L | > 64 mg/L | 16 mg/L |  |  |  |
| C[C@@](CCc1cc(C#CC2CC2)on1)(C(=O)NO)S(C)(=O)=O [Compound 1.1, (R)-4-(5-(cyclopropylethynyl)isoxazol-3-yl)-N-hydroxy-2-methyl-2-(methylsulfonyl)butanamide] | ≤0.06 mg/L | 0.125 mg/L | 3 nM | 0.25 mg/L | > 64 mg/L | 2 mg/L |  |  |  |
| CCC#Cc1cc(CC[C@](C)(C(=O)NO)S(C)(=O)=O)no1 [Compound 1.5, (R)-4-(5-(but-1-yn-1-yl)isoxazol-3-yl)-N-hydroxy-2-methyl-2-(methylsulfonyl)butanamide] | ≤0.06 mg/L | ≤0.06 mg/L | 1 nM | 0.25 mg/L | > 64 mg/L | 4 mg/L |  |  |  |
| CC(NCc1cc(C#CC2CC2)on1)(C(=O)NO)C(O)c1cc(C2CC2)on1 (stereo not drawn) [Compound 3.6, 2-(((5-(cyclopropylethynyl)isoxazol-3-yl)methyl)amino)-3-(5-cyclopropylisoxazol-3-yl)-N, 3-dihydroxy-2-methylpropanamide] | 0.5 mg/L | 0.125 mg/L | 2 nM | 4 mg/L | 64 mg/L | 2 mg/L |  |  |  |
| CC(C)C#Cc1cc(CC[C@](C)(C(=O)NO)S(C)(=O)=O)no1 [Compound 1.6, (R)—N-hydroxy-2-methyl-4-(5-(3-methylbut-1-yn-1-yl)isoxazol-3-yl)-2-(methylsulfonyl)butanamide] | 0.125 mg/L | 0.125 mg/L | < 1 nM | 0.5 mg/L | > 64 mg/L | 4 mg/L |  |  |  |
